Values after ≈ are worked out from the molar mass of the structure shown.
Legend:
Experiment in all cases: ≥ marks a high value that may be exact or a test limit, other limits are often not marked, values filed in µg/mL are converted to µM
[1] = tested on: Escherichia coli ATCC 25922
[2] = tested on: Pseudomonas aeruginosa ATCC 27853
[3] = tested on: Staphylococcus aureus ATCC 25923
[4] = tested on: Acinetobacter baumannii ATCC 19606
[5] = tested on: Staphylococcus aureus ATCC 29213
[6] = tested on: Candida albicans ATCC 90028
[7] = tested on: Staphylococcus aureus
[8] = tested on: Enterococcus faecalis ATCC 29212
[9] = tested on: Escherichia coli
[10] = tested on: Bacillus subtilis
[11] = tested on: Candida albicans
[12] = tested on: Staphylococcus epidermidis ATCC 12228

| Compound | MIC [1] [µM] | MIC [2] [µM] | MIC [3] [µM] | MIC [4] [µM] | MIC [5] [µM] | MIC [6] [µM] | other results |
| --- | --- | --- | --- | --- | --- | --- | --- |
| CSCC[C@H](NC(=O)[C@H](CCCCN)NC(=O)[C@H](CC(C)C)NC(=O)[C@@H](N)Cc1ccccc1)C(=O)N[C@@H](CC(C)C)C(=O)N[C@@H](CCCCN)C(=O)N[C@@H](CCCCN)C(=O)N[C@@H](CC(C)C)C(=O)N[C@@H](CC(C)C)C(N)=O [FLKMLKKLL] | 28.2 (≈ 32 µg/mL) | 7.06 (≈ 7.99 µg/mL) | 14.1 (≈ 16 µg/mL) | 14.1 (≈ 16 µg/mL) |  |  |  |
| CC[C@H](C)[C@H](NC(=O)[C@H](CCCCN)NC(=O)[C@H](CO)NC(=O)[C@H](CC(C)C)NC(=O)[C@H](CC(C)C)NC(=O)CNC(=O)[C@H](C)NC(=O)[C@@H](NC(=O)[C@H](C)NC(=O)CNC(=O)[C@@H](NC(=O)[C@@H](N)Cc1ccccc1)[C@@H](C)CC)C(C)C)C(=O)N[C@@H](Cc1ccccc1)C(N)=O [FIGAVAGLLSKIF] |  |  |  | > 29.9 | 37.4 (≈ 50 µg/mL) |  |  |
| CC[C@H](C)[C@H](NC(=O)[C@H](Cc1ccccc1)NC(=O)[C@@H]1CCCN1C(=O)[C@@H](NC(=O)[C@@H](N)CC(C)C)C(C)C)C(=O)NCC(=O)N[C@@H](CCCN=C(N)N)C(=O)N[C@H](C(=O)N[C@@H](CC(C)C)C(=O)NCC(=O)NCC(=O)N[C@@H](CC(C)C)C(=O)N[C@@H](CC(C)C)C(=O)N[C@@H](C)C(=O)N[C@@H](CCCN=C(N)N)C(=O)N[C@@H](Cc1ccccc1)C(N)=O)[C@@H](C)O [LVPFIGRTLGGLLARF] | > 64 |  |  | > 64 | 16 (≈ 27.7 µg/mL) |  | MIC [7]: 64 µM (≈ 111 µg/mL); MIC [8]: > 64 µM |
| CC(C)C[C@H](NC(=O)[C@H](CC(C)C)NC(=O)[C@H](CCCCN)NC(=O)[C@H](CCCCN)NC(=O)[C@H](CC(C)C)NC(=O)CNC(=O)[C@H](CCCCN)NC(=O)[C@H](CC(C)C)NC(=O)[C@@H](N)Cc1ccccc1)C(N)=O [FLKGLKKLL] | 121 (≈ 128 µg/mL) | 7.55 (≈ 7.99 µg/mL) | 121 (≈ 128 µg/mL) | > 121 |  |  |  |
| CC[C@H](C)[C@H](N)C(=O)N[C@@H](CC(N)=O)C(=O)N[C@@H](Cc1c[nH]c2ccccc12)C(=O)N[C@@H](CO)C(=O)N[C@@H](CO)C(=O)N[C@H](C(=O)N[C@@H](Cc1ccccc1)C(=O)N[C@@H](CCC(=O)O)C(=O)N[C@@H](CO)C(=O)N[C@H](C(=O)N[C@@H](CCCCN)C(=O)N[C@@H](CC(N)=O)C(=O)N[C@@H](CC(C)C)C(=O)N[C@H](C(N)=O)C(C)C)C(C)C)[C@@H](C)CC [INWSSIFESVKNLV] |  |  |  |  |  |  | MIC [9]: 100 µM (≈ 163 µg/mL); MIC [10]: ≥ 87.5 µM |
| CC(C)C[C@H](NC(=O)[C@H](C)NC(=O)[C@H](CCCCN)NC(=O)[C@H](C)NC(=O)[C@H](CC(C)C)NC(=O)[C@H](C)NC(=O)[C@H](CCCCN)NC(=O)[C@H](C)NC(=O)[C@H](C)NC(=O)[C@H](C)NC(=O)[C@H](CCCCN)NC(=O)[C@H](C)NC(=O)[C@@H](NC(=O)[C@H](C)NC(=O)[C@H](CCCCN)NC(=O)[C@H](C)NC(=O)[C@H](CC(C)C)NC(=O)[C@@H](N)Cc1ccccc1)C(C)C)C(=O)O [FLAKAVAKAAAKALAKAL] |  |  |  |  |  |  | MIC [11]: 82 µM (≈ 144 µg/mL) |
| CC[C@H](C)[C@H](NC(=O)CNC(=O)[C@H](CCCCN)NC(=O)[C@@H](NC(=O)[C@H](CC(C)C)NC(=O)[C@H](CO)NC(=O)CNC(=O)[C@H](CC(C)C)NC(=O)CNC(=O)[C@H](C)NC(=O)[C@H](CCCCN)NC(=O)[C@H](CC(C)C)NC(=O)[C@@H](NC(=O)[C@H](CCC(=O)O)NC(=O)[C@H](CCCCN)NC(=O)[C@H](Cc1ccccc1)NC(=O)CN)C(C)C)C(C)C)C(=O)N1CCC[C@H]1C(=O)N[C@@H](C)C(=O)N[C@@H](Cc1cnc[nH]1)C(=O)N[C@H](C(=O)N[C@@H](C)C(=O)N[C@@H](CC(N)=O)C(N)=O)C(C)C [GFKEVLKAGLGSLVKGIPAHVAN] |  |  |  |  |  |  | MIC [7]: 434 µM (≈ 1000 µg/mL); MIC [9]: 217 µM (≈ 500 µg/mL); MIC [11]: > 400 µM |
| CC[C@H](C)[C@@H]1NC(=O)[C@H](Cc2ccccc2)NC(=O)[C@@H](NC(=O)[C@H](Cc2ccccc2)NC(=O)[C@@H](NC(=O)[C@H](CCCCN)NC(=O)[C@@H]2CCCN2C(=O)[C@H](CC(C)C)NC(=O)[C@@H](NC(=O)[C@H](CCCCN)NC(=O)[C@H](C)NC(=O)[C@H](C)NC(=O)[C@@H](NC(=O)[C@H](CO)NC(=O)[C@H](C)NC(=O)[C@@H](NC(=O)[C@@H](NC(=O)[C@@H]2CCCN2C(=O)[C@H](CC(C)C)NC(=O)[C@@H](N)Cc2ccccc2)C(C)C)[C@@H](C)CC)C(C)C)C(C)C)C(C)C)CSSC[C@@H](C(=O)O)NC(=O)[C@H](CCCCN)NC(=O)[C@H](CCCCN)NC(=O)[C@H]([C@@H](C)O)NC1=O [FLPVIASVAAKVLPKVFCFITKKC] | 50 (≈ 131 µg/mL) |  | 1.5 (≈ 3.93 µg/mL) |  |  | 3 (≈ 7.86 µg/mL) |  |

Further lines, with some results ahead:

| MIC [1] [µM] | MIC [2] [µM] | MIC [3] [µM] | MIC [4] [µM] | MIC [5] [µM] | MIC [6] [µM] | Compound | other results |
| --- | --- | --- | --- | --- | --- | --- | --- |
| 25 (≈ 48.9 µg/mL) |  | 50 (≈ 97.8 µg/mL) |  |  | 25 (≈ 48.9 µg/mL) | CC[C@H](C)[C@H](NC(=O)[C@H](CCCCN)NC(=O)CNC(=O)[C@@H](NC(=O)[C@@H](NC(=O)[C@H](CO)NC(=O)CNC(=O)[C@H](C)NC(=O)[C@H](CCCCN)NC(=O)[C@H](CO)NC(=O)[C@H](C)NC(=O)[C@H](CCSC)NC(=O)CN)[C@@H](C)CC)C(C)C)C(=O)N[C@@H](C)C(=O)N[C@@H](CCCCN)C(=O)N[C@H](C(=O)N[C@@H](C)C(=O)N[C@@H](CC(C)C)C(=O)NCC(=O)N[C@@H](C)C(=O)N[C@@H](CC(C)C)C(N)=O)[C@@H](C)CC [GMASKAGSIVGKIAKIALGAL] |  |
| 20 (≈ 31.7 µg/mL) | 40 (≈ 63.3 µg/mL) |  |  | 40 (≈ 63.3 µg/mL) | ≥ 40 | CC[C@H](C)[C@H](NC(=O)[C@H](CCCN=C(N)N)NC(=O)[C@@H](N)CCCCN)C(=O)N[C@H](C(=O)N[C@@H](CCC(N)=O)C(=O)N[C@@H](CCCN=C(N)N)C(=O)N[C@@H](CCCCN)C(=O)N[C@@H](CCCCN)C(=O)N[C@@H](CC(=O)O)C(=O)N[C@@H](CCCCN)C(=O)N[C@@H](CCCCN)C(=O)N[C@@H](CCCN=C(N)N)C(=O)O)C(C)C [KRIVQRKKDKKR] |  |
|  |  |  |  |  | ≥ 100 | CC[C@H](C)[C@H](NC(=O)[C@H](CCCCN)NC(=O)[C@H](CC(=O)O)NC(=O)[C@H](CC(C)C)NC(=O)[C@@H](NC(=O)[C@H](CC(N)=O)NC(=O)[C@@H](NC(=O)[C@H](Cc1ccccc1)NC(=O)[C@H](CC(C)C)NC(=O)[C@H](CCCCN)NC(=O)[C@H](CCCCN)NC(=O)CN)C(C)C)C(C)C)C(=O)N[C@@H](CCCN=C(N)N)C(=O)N[C@H]1CSSC[C@@H](C(=O)O)NC(=O)CNC(=O)CNC(=O)[C@H](C)NC(=O)[C@H](C(C)C)NC(=O)[C@H](CCCCN)NC1=O [GKKLFVNVLDKIRCKVAGGC] |  |
| 2.5 (≈ 3.75 µg/mL) | 5 (≈ 7.5 µg/mL) |  |  | 20 (≈ 30 µg/mL) | 10 (≈ 15 µg/mL) | CC[C@H](C)[C@H](NC(=O)[C@H](CCCN=C(N)N)NC(=O)[C@@H](N)CCCCN)C(=O)N[C@@H](C)C(=O)N[C@@H](CCC(N)=O)C(=O)N[C@@H](CCCN=C(N)N)C(=O)N[C@H](C(=O)N[C@@H](CCCCN)C(=O)N[C@@H](C)C(=O)N[C@@H](Cc1ccccc1)C(=O)N[C@@H](CC(C)C)C(=O)N[C@@H](CCCN=C(N)N)C(=O)O)[C@@H](C)CC [KRIAQRIKAFLR] |  |
| 62 (≈ 133 µg/mL) | 62 (≈ 133 µg/mL) | 62 (≈ 133 µg/mL) |  |  |  | CC(C)C[C@H](NC(=O)[C@H](CC(C)C)NC(=O)[C@H](CCCCN)NC(=O)[C@@H](N)Cc1c[nH]c2ccccc12)C(=O)N[C@@H](CO)C(=O)N[C@@H](CCCCN)C(=O)N[C@@H](C)C(=O)N[C@@H](CCC(N)=O)C(=O)N[C@@H](CCC(=O)O)C(=O)N[C@@H](CCCCN)C(=O)N[C@@H](Cc1ccccc1)C(=O)NCC(=O)N[C@@H](CCCCN)C(=O)N[C@@H](CC(N)=O)C(=O)N[C@@H](CCCCN)C(=O)N[C@@H](CO)C(=O)N[C@@H](CCCN=C(N)N)C(=O)N[C@@H](CS)C(N)=O [WKLLSKAQEKFGKNKSRC] | MIC [12]: 7.69 µM (≈ 16.5 µg/mL) |

— DBAASP
